Assay results: patent EP4786466A1, “QUINAZOLINE DERIVATIVE, SALT THEREOF, AND PHARMACEUTICAL COMPOSITION COMPRISING SAME AS ACTIVE INGREDIENT” (Korea Research Institute of Chemical Technology, priority 2023, dated 2025)
Read-outs that look alike come from different tables or passages of the source.

Tests used:
in vitro = conditions: human, mcf10a cells
Protocol: (§1) MCF7 breast cancer cell lines and MCF10A normal breast cancer cell lines were treated with serial dilutions of the compounds of the present invention ranging from 1 µM to 15.63 nM for 72 hours. Cell viability was measured by the WST-8 assay (Cyto XTM cell viability assay kit; LPS solution, Daejeon, Korea) according to the manufacturer's instructions.

pENSA = pENSA level by immunofluorescence (described method: in vitro kinase analysis with GST-tag-MASTL and His-tag-ENSA); format: cell-based; conditions: for pENSA (%) Immunofluor ecense (1 µM): compound 1 µM
In short: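 In vitro kinase reaction using recombinant GST-tagged MASTL with His-tagged ENSA as substrate; phosphorylated ENSA (pENSA) serves as read-out of MASTL activity. Cell lines named: MCF7 breast cancer and MCF10A.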

[1] = test system: MCF7 breast cancer cell lines; experiment: Cell viability analysis, WST-8 assay, MCF7; conditions: for viability at 1 µM / viability at 1.25 µM / IC50: Homo sapiens, MCF7, 72 h; for viability at 1 µM: read-out: Cell viability (%) WST-8, MCF7 (1 µM), compound 1 µM, 72 hours; for viability at 1.25 µM: read-out: Cell viability (%) WST-8, MCF7, footnote a: concentration 1.25 µM, 72 hours
Protocol: as §1

[2] = biological target: T1, Recombinant GST-TAG-MASTL (Homo sapiens, UniProt Q96GX5); experiment: HTRF-based kinase assay (HTRF KinEASE assay kit); format: biochemical; conditions: for activity at 1 µM: read-out: MASTL activity (%) HTRF (1 µM)
T1 construct: GST; purchased Thermo Fisher Scientific
T1 sequence (Q96GX5 1-879): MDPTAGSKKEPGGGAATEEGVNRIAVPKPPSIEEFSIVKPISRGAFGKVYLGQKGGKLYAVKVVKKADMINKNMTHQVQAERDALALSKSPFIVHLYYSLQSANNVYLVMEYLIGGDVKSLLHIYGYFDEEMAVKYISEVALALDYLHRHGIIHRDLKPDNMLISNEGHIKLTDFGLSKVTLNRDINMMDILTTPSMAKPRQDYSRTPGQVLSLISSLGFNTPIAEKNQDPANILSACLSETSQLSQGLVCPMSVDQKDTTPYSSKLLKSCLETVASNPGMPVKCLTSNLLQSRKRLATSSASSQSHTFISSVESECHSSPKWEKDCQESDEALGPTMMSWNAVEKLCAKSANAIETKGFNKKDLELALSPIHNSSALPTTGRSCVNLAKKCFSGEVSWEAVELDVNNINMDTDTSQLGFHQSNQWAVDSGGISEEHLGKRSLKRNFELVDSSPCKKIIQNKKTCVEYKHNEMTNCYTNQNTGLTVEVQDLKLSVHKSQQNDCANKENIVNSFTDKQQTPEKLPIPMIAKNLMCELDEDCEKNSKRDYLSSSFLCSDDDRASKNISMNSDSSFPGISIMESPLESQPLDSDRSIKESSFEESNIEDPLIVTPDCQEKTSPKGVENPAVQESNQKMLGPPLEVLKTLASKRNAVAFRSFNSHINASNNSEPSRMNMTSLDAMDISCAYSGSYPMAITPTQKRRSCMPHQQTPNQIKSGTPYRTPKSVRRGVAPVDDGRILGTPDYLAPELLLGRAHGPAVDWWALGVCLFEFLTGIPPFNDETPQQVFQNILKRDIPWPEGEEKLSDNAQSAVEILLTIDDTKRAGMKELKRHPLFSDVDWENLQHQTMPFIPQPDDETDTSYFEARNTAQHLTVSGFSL
Excerpt: Recombinant GST-TAG-MASTL (Thermo Fisher Scientific, MA, USA) was used for HTRF-based kinase assays. The HTRF KinEASE assay kit (CisBio, MA, USA) was used according to the manufacturer's instructions.

[3] = HTRF, read-out: IC50(nM) MASTL activity
[4] = footnote b: concentration 10 µM, read-out: MASTL activity (%) HTRF
[5] = read-out: IC50 Cell viability (MCF7)

| SMILES | viability at 1 µM (in vitro) [%] | pENSA (%) Immunofluor ecense (1 µM) (pENSA) [%] | viability at 1 µM [1] [%] | activity at 1 µM ([2]; compound 1 µM) [%] | IC50 (pENSA; read-out: IC50(nM) pENSA) [µM] | further results |
| --- | --- | --- | --- | --- | --- | --- |
| CC(C)(C)OC(=O)NCCCCCNC(=O)c1ccc(Nc2nc(Nc3cc(C4CC4)[nH]n3)c3ccccc3n2)cc1 [4z, sdqs-butyl (5-(4-((4-((5-cyclopropyl-1G-pyrazol-3-yl)amino)quinazolin-2-yl)amino)benzamido)pentyl)carbamate] | 77.7 | 188 | 86.3 | 85.3 |  |  |
| CC(C)(C)OC(=O)N1CCC2(CC1)CN(c1nc(Nc3cc(C4CC4)[nH]n3)c3ccccc3n1)C2 [6d, sdqs-butyl 2-(4-((5-cyclopropyl-1G-pyrazol-3-yl)amino)quinazolin-2-yl)-2,7-diazaspiro[3.5]nonane-7-carboxylate] | 104 | 96.4 | 88.6 | 48 |  |  |
| CC(C)(C)OC(=O)N1C2CCC1CN(c1nc(Nc3cc(C4CC4)[nH]n3)c3ccccc3n1)C2 [19' (B), sdqs-butyl 3-(4-((5-cyclopropyl-1G-pyrazol-3-yl)amino)quinazolin-2-yl)-3,8-diazabicyclo[3.2.1]octane-8-carboxylate] | 101 | 74.7 | 74.8 | 32.2 |  | IC50 [2, 3]: 282 nM |
| Clc1nc(Nc2cc(C3CC3)[nH]n2)c2ccccc2n1 [compound 2a, 2-chloro-M-(5-cyclopropyl-1G-pyrazol-3-yl)quinazolin-4-amine] | 93.3 | 105 | 106 | 73.4 |  |  |
| CC(C)(C)OC(=O)Nc1cccc(Nc2nc(Nc3ccc(CC#N)cc3)nc3ccccc23)c1 [compound 3m, sdqs-butyl (3-((2-((4-(cyanomethyl)phenyl)amino)quinazolin-4-yl)amino)phenyl)carbamate] | 91.7 | 85 | 116 | 117 |  |  |
| Brc1ccc(Nc2nc(Nc3cc(C4CC4)[nH]n3)c3ccccc3n2)cc1 [compound 4b, M^2-(4-bromophenyl)-M^4-(5-cyclopropyl-1G-pyrazol-3-yl)quinazoline-2,4-diamine] | 68.2 | 82 | 47.7 | 43.2 |  | IC50 (pENSA; unit µM, read-out: IC50 pENSA): 1.1 µM; IC50 ([2]; HTRF, unit µM, read-out: IC50 MASTL activity): 1400 nM |
| Fc1cc(Br)ccc1Nc1nc(Nc2cc(C3CC3)[nH]n2)c2ccccc2n1 [compound 4c, M^2-(4-bromo-2-fluorophenyl)-M^4-(5-cyclopropyl-1G-pyrazol-3-yl)quinazoline-2,4-diamine] | 83.3 | 69 | 50.8 | 47.1 | 0.85 |  |
| O=C1Cc2cc(Nc3nc(Nc4cc(C5CC5)[nH]n4)c4ccccc4n3)ccc2N1 [compound 4di, 5-((4-((5-cyclopropyl-1G-pyrazol-3-yl)amino)quinazolin-2-yl)amino)indolin-2-one] | 12.1 | 51.1 | 55.4 | 38.8 |  |  |
| c1ccc2c(Nc3cc(C4CC4)[nH]n3)nc(Nc3ccc(Cc4nnn[nH]4)cc3)nc2c1 [compound 4e, M^2-(4-((1G-tetrazol-5-yl)methyl)phenyl)-M^4-(5-cyclopropyl-1G-pyrazol-3-yl)quinazoline-2,4-diamine] |  | 90.7 |  |  |  | viability at 1.25 µM (in vitro): 110%; viability at 1.25 µM [1]: 112%; IC50 [2, 3]: 164 nM; activity at 10 µM [2, 4]: 15.1% |
| CS(=O)(=O)Cc1ccc(Nc2nc(Nc3cc(C4CC4)[nH]n3)c3ccccc3n2)cc1 [compound 4f, M^4-(5-cyclopropyl-1G-pyrazol-3-yl)-M^2-(4-((methylsulfonyl)methyl)phenyl)quinazoline-2,4-diamine] |  | 50.5 |  |  | 0.899 | viability at 1.25 µM (in vitro): 33%; viability at 1.25 µM [1]: 94.5%; IC50 [1, 5]: 2300 nM; activity at 10 µM [2, 4]: 29% |
| NS(=O)(=O)c1ccc(Nc2nc(Nc3cc(C4CC4)[nH]n3)c3ccccc3n2)cc1 [compound 4g, 4-((4-((5-cyclopropyl-1G-pyrazol-3-yl)amino)quinazolin-2-yl)amino)benzenesulfonamide] |  | 10.4 |  |  | 0.344 | viability at 1.25 µM (in vitro): 9.3%; viability at 1.25 µM [1]: 85.3%; IC50 [1, 5]: 2700 nM; IC50 [2]: 189 nM; activity at 10 µM ([2]; read-out: MASTL activity (%) HTRF): 18.6% |
| CN(C)S(=O)(=O)c1ccc(Nc2nc(Nc3cc(C4CC4)[nH]n3)c3ccccc3n2)cc1 [compound 4j, 4-((4-((5-cyclopropyl-1G-pyrazol-3-yl)amino)quinazolin-2-yl)amino)-M,M-dimethylbenzenesulfonamide] |  | 5.2 |  |  | 0.42 | viability at 1.25 µM (in vitro): 21.6%; viability at 1.25 µM [1]: 22.8%; IC50 ([1]; read-out: IC50(nM) Cell viability (MCF7)): 713 nM; selectivity for breast cancer cells over normal cells in the cell viability assay ([1]; MCF7 versus MCF10A): selectively inhibit only breast cancer cells; IC50 [2, 3]: 527 nM; activity at 1.25 µM ([2]; footnote a: concentration 1.25 µM, read-out: MASTL activity (%) HTRF): 27% |
| FC(F)(F)c1cc(Nc2nc(Nc3cc(C4CC4)[nH]n3)c3ccccc3n2)ccc1Cl [compound 4k, M^2-(4-chloro-3-(trifluoromethyl)phenyl)-M^4-(5-cyclopropyl-1G-pyrazol-3-yl)quinazoline-2,4-diamine] |  | 105 |  |  |  | viability at 1.25 µM (in vitro): 115%; viability at 1.25 µM [1]: 80.8%; activity at 10 µM [2, 4]: 59.2% |
| Cc1ccc(-c2nc3ccccc3s2)cc1Nc1nc(Nc2cc(C3CC3)[nH]n2)c2ccccc2n1 [compound 4l, M^2-(5-(benzo[c]thiazol-2-yl)-2-methylphenyl)-M^4-(5-cyclopropyl-1G-pyrazol-3-yl)quinazoline-2,4-diamine] | 118 | 88.6 | 100 | 81.5 |  |  |
| c1ccc2sc(-c3ccc(Nc4nc(Nc5cc(C6CC6)[nH]n5)c5ccccc5n4)cc3)nc2c1 [compound 4m, M^2-(4-(benzo[c]thiazol-2-yl)phenyl)-M^4-(5-cyclopropyl-1G-pyrazol-3-yl)quinazoline-2,4-diamine] | 85.8 | 88.8 | 110 | 73 |  |  |
| COC(=O)c1ccc(Nc2nc(Nc3cc(C4CC4)[nH]n3)c3ccccc3n2)cc1 [compound 4o, Methyl 4-((4-((5-cyclopropyl-1G-pyrazol-3-yl)amino)quinazolin-2-yl)amino)benzoate] | 79.4 | 19.2 | 53.4 | 53.8 | 0.68 |  |
| CC(C)(C)OC(=O)c1ccc(Nc2nc(Nc3cc(C4CC4)[nH]n3)c3ccccc3n2)cc1 [compound 4p, sdqs-butyl 4-((4-((5-cyclopropyl-1G-pyrazol-3-yl)amino)quinazolin-2-yl)amino)benzoate] | 86.8 | 56.2 | 100 | 58 |  |  |
| CC(C)(C)OC(=O)Cc1ccc(Nc2nc(Nc3cc(C4CC4)[nH]n3)c3ccccc3n2)cc1 [compound 4q, sdqs-butyl 2-(4-((4-((5-cyclopropyl-1G-pyrazol-3-yl)amino)quinazolin-2-yl)amino)phenyl)acetate] | 98.8 | 53.6 | 107 | 76.1 |  |  |
| O=C(O)c1ccc(Nc2nc(Nc3cc(C4CC4)[nH]n3)c3ccccc3n2)cc1 [compound 4r, 4-((4-((5-cyclopropyl-1G-pyrazol-3-yl)amino)quinazolin-2-yl)amino)benzoic acid] | 84.2 | 12 | 98.8 |  | 0.988 | activity at 1 µM [2]: 56.6% |
